Reference: patent US20080194546A1, “Pyrido-, Pyrazo- and Pyrimido-Pyrimidine Derivatives as mTOR Inhibitors” (KuDOS Pharmaceuticals Limited, priority 2005, published 2008)

Each compound was assayed on phosphorylation of Serine 473 in Akt in MDA-MB-468 cells (assay: In Vitro phospho-Ser473 Akt Assay (Acumen Explorer)). Conditions: Homo sapiens, MDA-MB-468, read-out: IC50 values against mTOR (phospho-Ser473 Akt assay).
Assay type: cell-based

C[C@@H]1CN(c2nc(N3CCOC[C@@H]3C)c3ccc(-c4ccccc4)nc3n2)C[C@H](C)O1 [Example 11j] and Cc1ccc(-c2cnc3c(N4CCOC[C@@H]4C)nc(N4C[C@@H](C)O[C@@H](C)C4)nc3n2)cc1 [Example 22b] cannot be ordered by IC50: under 0.3 µM for the first, under 11 µM for the second.

COc1ccc(-c2ccc3c(N4CCOC[C@@H]4C)nc(N4CCOC[C@@H]4C)nc3n2)cn1 [Example 11n] and CCN(C)C(=O)c1cc(-c2ccc3c(N4CCOC[C@@H]4C)nc(N4CCOC[C@@H]4C)nc3n2)ccc1OC [Example 13u] cannot be ordered by IC50: under 0.3 µM for the first, under 11 µM for the second.

C[C@H]1COCCN1c1nc(N2CCCC(CO)C2)nc2nc(-c3cccc(C(N)=O)c3)ccc12 (some centres unmarked) [Example 12d] and C[C@H]1COCCN1c1nc(N2CCC(CO)CC2)nc2nc(-c3cccc(C(N)=O)c3)ccc12 [Example 12h] cannot be ordered by IC50: under 11 µM for the first, under 11 µM for the second.

C[C@H]1COCCN1c1nc(N2CCC(c3ccncc3)CC2)nc2nc(-c3ccc(N)nc3)ccc12 [Example 12e] and C[C@H]1COCCN1c1nc(N2CCC(C(N)=O)CC2)nc2nc(-c3ccc(Cl)cc3)ccc12 [Example 28dj] cannot be ordered by IC50: under 11 µM for the first, under 11 µM for the second.

C[C@H]1COCCN1c1nc(N2CCOC[C@@H]2C)c2ccc(-c3cccc(C(=O)NCC(F)(F)F)c3)nc2n1 [Example 13f] and C[C@H]1COCCN1c1nc(N2CCOC[C@@H]2C)c2ccc(-c3ccc(F)c(CNC(=O)C(F)(F)F)c3)nc2n1 [Example 15z] cannot be ordered by IC50: under 11 µM for the first, under 11 µM for the second.

C[C@H]1COCCN1c1nc(N2CCOC[C@@H]2C)c2ccc(-c3cccc(C(=O)N4CC[C@@H](O)C4)c3)nc2n1 [Example 13g] and C[C@H]1COCCN1c1nc(N2CCOC[C@@H]2C)c2ccc(-c3cccc(CS(C)(=O)=O)c3)nc2n1 [Example 14t] cannot be ordered by IC50: under 11 µM for the first, under 11 µM for the second.

C[C@H]1COCCN1c1nc(N2CCOC[C@@H]2C)c2ccc(-c3ccc(F)c(CNCCF)c3)nc2n1 [Example 14ab] and CC(=O)NCc1cc(-c2ccc3c(N4CCOC[C@@H]4C)nc(N4CCOC[C@@H]4C)nc3n2)ccc1F [Example 15t] cannot be ordered by IC50: under 11 µM for the first, under 11 µM for the second.

COCCN(C)Cc1cc(-c2ccc3c(N4CCOC[C@@H]4C)nc(N4CCOC[C@@H]4C)nc3n2)ccc1F [Example 14aj] and COCC(=O)NCc1cc(-c2ccc3c(N4CCOC[C@@H]4C)nc(N4CCOC[C@@H]4C)nc3n2)ccc1F [Example 15u] cannot be ordered by IC50: under 11 µM for the first, under 11 µM for the second.

COc1ccc(-c2ccc3c(N4CCOC[C@@H]4C)nc(N4CCOC[C@@H]4C)nc3n2)cc1CNC1CC1 [Example 14al] and COc1ccc(-c2ccc3c(N4CCOCC4C)nc(N4CCOC[C@@H]4C)nc3n2)cc1CNC1CCOCC1 (some centres unmarked) [Example 14aq] cannot be ordered by IC50: under 0.1 µM for the first, under 0.1 µM for the second.

COc1ccc(CCNCc2cc(-c3ccc4c(N5CCOCC5C)nc(N5CCOC[C@@H]5C)nc4n3)ccc2OC)cc1 (some centres unmarked) [Example 14bd] and COc1ccc(-c2ccc3c(N4CCOCC4C)nc(N4CCOC[C@@H]4C)nc3n2)cc1CNC1CCCCCCC1 (some centres unmarked) [Example 14bf] cannot be ordered by IC50: under 0.1 µM for the first, under 0.1 µM for the second.

C[C@H]1COCCN1c1nc(N2CCOC[C@@H]2C)c2ccc(-c3ccc(F)c(CNC4CC4)c3)nc2n1 [Example 14v] and C[C@H]1COCCN1c1nc(N2CCOC[C@@H]2C)c2ccc(-c3ccc(F)c(CNC(=O)C4CCC4)c3)nc2n1 [Example 15x] cannot be ordered by IC50: under 11 µM for the first, under 11 µM for the second.

CC(C)C(=O)NCc1cccc(-c2ccc3c(N4CCOC[C@@H]4C)nc(N4CCOC[C@@H]4C)nc3n2)c1 [Example 15d] and CC(C)CC(=O)NCc1cccc(-c2ccc3c(N4CCOC[C@@H]4C)nc(N4CCOC[C@@H]4C)nc3n2)c1 [Example 15f] cannot be ordered by IC50: under 11 µM for the first, under 11 µM for the second.

CC(=O)N(C)Cc1ccc(-c2ccc3c(N4CCOC[C@@H]4C)nc(N4CCOC[C@@H]4C)nc3n2)cc1 [Example 15r] and CC(C)C(=O)NCc1cc(-c2ccc3c(N4CCOC[C@@H]4C)nc(N4CCOC[C@@H]4C)nc3n2)ccc1F [Example 15w] cannot be ordered by IC50: under 11 µM for the first, under 11 µM for the second.

CC(C)CC(=O)NCc1cc(-c2ccc3c(N4CCOC[C@@H]4C)nc(N4CCOC[C@@H]4C)nc3n2)ccc1F [Example 15y] and C[C@H]1COCCN1c1nc(N2CCOC[C@@H]2C)c2ccc(-c3ccc(CNCC(N)=O)o3)nc2n1 [Example 17j] cannot be ordered by IC50: under 11 µM for the first, under 11 µM for the second.

C[C@H]1COCCN1c1nc(N2CCOC[C@@H]2C)c2ccc(-c3ccc(CNC4CC4)o3)nc2n1 [Example 17e] and C[C@H]1COCCN1c1nc(N2CCOC[C@@H]2C)c2ccc(-c3ccc(CNc4cc[nH]n4)o3)nc2n1 [Example 17i] cannot be ordered by IC50: under 11 µM for the first, under 11 µM for the second.

COC(=O)[C@@H]1C[C@@H](O)CN1c1nc(N2CCOC[C@@H]2C)c2ccc(-c3ccc(OC)c(CO)c3)nc2n1 [Example 28aa] and COC(=O)c1cncn1-c1nc(N2CCOC[C@@H]2C)c2ccc(-c3ccc(OC)c(CO)c3)nc2n1 [Example 28az] cannot be ordered by IC50: under 11 µM for the first, under 11 µM for the second.

COc1ccc(-c2ccc3c(N4CCOC[C@@H]4C)nc(N4CCC5CCCCC5C4)nc3n2)cc1CO (some centres unmarked) [Example 28ag] and COc1ccc(-c2ccc3c(N4CCOC[C@@H]4C)nc(N4CCC(N5CCCC5)CC4)nc3n2)cc1CO [Example 28ai] cannot be ordered by IC50: under 11 µM for the first, under 11 µM for the second.

COc1ccc(-c2ccc3c(N4CCOC[C@@H]4C)nc(N4CCC(Cc5ccccc5)CC4)nc3n2)cc1CO [Example 28al] and COc1ccc(-c2ccc3c(N4CCOC[C@@H]4C)nc(N4CCCC(c5ccccc5)C4)nc3n2)cc1CO (some centres unmarked) [Example 28j] cannot be ordered by IC50: under 11 µM for the first, under 11 µM for the second.

COc1ccc(-c2ccc3c(N4CCOC[C@@H]4C)nc(NCCO)nc3n2)cc1CO [Example 28bs] and CNCCNc1nc(N2CCOC[C@@H]2C)c2ccc(-c3ccc(OC)c(CO)c3)nc2n1 [Example 28bv] cannot be ordered by IC50: under 11 µM for the first, under 11 µM for the second.

COCCNc1nc(N2CCOC[C@@H]2C)c2ccc(-c3ccc(OC)c(CO)c3)nc2n1 [Example 28by] and COc1ccc(-c2ccc3c(N4CCOC[C@@H]4C)nc(NCCN(C)C)nc3n2)cc1CO [Example 28cb] cannot be ordered by IC50: under 11 µM for the first, under 11 µM for the second.

COc1ccc(-c2ccc3c(N4CCOC[C@@H]4C)nc(N4CCN(CCO)CC4)nc3n2)cc1CO [Example 28ci] and COc1ccc(-c2ccc3c(N4CCOC[C@@H]4C)nc(N4CCC(N5CCCCC5)CC4)nc3n2)cc1CO [Example 28z] cannot be ordered by IC50: under 0.3 µM for the first, under 11 µM for the second.

COc1ccc(-c2ccc3c(N4CCOC[C@@H]4C)nc(NC(C)CN(C)C)nc3n2)cc1CO (some centres unmarked) [Example 28ct] and CCOc1nc(N2CCOC[C@@H]2C)c2ccc(-c3ccc(OC)c(CO)c3)nc2n1 [Example 28cv] cannot be ordered by IC50: under 11 µM for the first, under 11 µM for the second.

C[C@H]1CCCCN1c1nc(N2CCOC[C@@H]2C)c2ccc(-c3ccc(Cl)cc3)nc2n1 [Example 28de] and C[C@@H]1CCCCN1c1nc(N2CCOC[C@@H]2C)c2ccc(-c3ccc(Cl)cc3)nc2n1 [Example 28dg] cannot be ordered by IC50: under 11 µM for the first, under 11 µM for the second.

COc1ccc(-c2ccc3c(N4CCOC[C@@H]4C)nc(Nc4ccncn4)nc3n2)cc1CO [Example 28n] and COc1ccc(-c2ccc3c(N4CCOC[C@@H]4C)nc(Nc4cccnc4)nc3n2)cc1CO [Example 28o] cannot be ordered by IC50: under 11 µM for the first, under 11 µM for the second.

COc1ccc(-c2ccc3c(N4CCOC[C@@H]4C)nc(-c4cccc(CN)c4)nc3n2)cc1CO [Example 29e] and COCc1cccc(-c2nc(N3CCOC[C@@H]3C)c3ccc(-c4ccc(OC)c(CO)c4)nc3n2)c1 [Example 29l] cannot be ordered by IC50: under 11 µM for the first, under 11 µM for the second.

COC(=O)c1cccc(-c2nc(N3CCOC[C@@H]3C)c3ccc(-c4ccc(OC)c(CO)c4)nc3n2)c1 [Example 29h] and COc1cccc(-c2nc(N3CCOC[C@@H]3C)c3ccc(-c4ccc(OC)c(CO)c4)nc3n2)c1 [Example 29o] cannot be ordered by IC50: under 11 µM for the first, under 11 µM for the second.

COc1ccc(-c2ccc3c(N4CCOC[C@@H]4C)nc(-c4cccc([N+](=O)[O-])c4)nc3n2)cc1CO [Example 29i] and COc1ccc(-c2ccc3c(N4CCOC[C@@H]4C)nc(-c4cccc(C)c4)nc3n2)cc1CO [Example 29n] cannot be ordered by IC50: under 11 µM for the first, under 11 µM for the second.

COc1ccc(-c2ccc3c(N4CCOC[C@@H]4C)nc(-c4cccc(C(F)(F)F)c4)nc3n2)cc1CO [Example 29m] and COc1cncc(-c2nc(N3CCOC[C@@H]3C)c3ccc(-c4cccc(CO)c4)nc3n2)c1 [Example 29s] cannot be ordered by IC50: under 11 µM for the first, under 11 µM for the second.

C[C@H]1COCCN1c1nc(-c2ccncc2)nc2nc(-c3cccc(CO)c3)ccc12 [Example 29q] and C[C@H]1COCCN1c1nc(-c2cnn(C)c2)nc2nc(-c3cccc(CO)c3)ccc12 [Example 29v] cannot be ordered by IC50: under 11 µM for the first, under 11 µM for the second.

C[C@H]1COCCN1c1nc(-c2cccnc2F)nc2nc(-c3cccc(CO)c3)ccc12 [Example 29u] and Cc1nn(C)c(C)c1-c1nc(N2CCOC[C@@H]2C)c2ccc(-c3cccc(CO)c3)nc2n1 [Example 29w] cannot be ordered by IC50: under 11 µM for the first, under 11 µM for the second.

Same assay, conditions: Homo sapiens; MDA-MB-468 cells, 2 hours; read-out: IC50, phospho-Ser473 Akt assay (cellular IC50, measured by pAkt)

Point of comparison: C[C@H]1COCCN1c1nc(N2CCOCC2)nc2nc(-c3ccc(N)nc3)ccc12 [Example 28dl], IC50 0.295 µM. Against it:
- C[C@H]1COCCN1c1nc(N2CCOC[C@@H]2C)c2ccc(-c3ccc4[nH]nc(N)c4c3)nc2n1 [Example 11ds, 5-[2,4-Bis-((S)-3-methyl-morpholin-4-yl)-pyrido[2,3-d]pyrimidin-7-yl]-1H-indazol-3-ylamine] — 4.9-fold lower, 0.0607 µM
- CC(C)S(=O)(=O)Nc1cccc(-c2ccc3c(N4CCOC[C@@H]4C)nc(N4CCOC[C@@H]4C)nc3n2)c1 [Example 25b] — 1.7-fold higher, 0.505 µM
- CNC(=O)C1CCN(c2nc(N3CCOC[C@@H]3C)c3ccc(-c4ccc(N)nc4)nc3n2)CC1 [Example 28dk] — 2.3-fold higher, 0.682 µM

These compounds were tested against recombinant mTOR (FLAG-tagged, amino acid residues 1362 to 2549) (Homo sapiens, UniProt P42345) (assay: Alternative Enzyme Assay: AlphaScreen, inhibition of phosphorylation by recombinant mTOR). Conditions: Alternative Enzyme Assay, upper bounds; read-out: IC50 values against mTOR.
Assay type: biochemical

Sequence of recombinant mTOR (FLAG-tagged, amino acid residues 1362 to 2549) (P42345 1362-2549): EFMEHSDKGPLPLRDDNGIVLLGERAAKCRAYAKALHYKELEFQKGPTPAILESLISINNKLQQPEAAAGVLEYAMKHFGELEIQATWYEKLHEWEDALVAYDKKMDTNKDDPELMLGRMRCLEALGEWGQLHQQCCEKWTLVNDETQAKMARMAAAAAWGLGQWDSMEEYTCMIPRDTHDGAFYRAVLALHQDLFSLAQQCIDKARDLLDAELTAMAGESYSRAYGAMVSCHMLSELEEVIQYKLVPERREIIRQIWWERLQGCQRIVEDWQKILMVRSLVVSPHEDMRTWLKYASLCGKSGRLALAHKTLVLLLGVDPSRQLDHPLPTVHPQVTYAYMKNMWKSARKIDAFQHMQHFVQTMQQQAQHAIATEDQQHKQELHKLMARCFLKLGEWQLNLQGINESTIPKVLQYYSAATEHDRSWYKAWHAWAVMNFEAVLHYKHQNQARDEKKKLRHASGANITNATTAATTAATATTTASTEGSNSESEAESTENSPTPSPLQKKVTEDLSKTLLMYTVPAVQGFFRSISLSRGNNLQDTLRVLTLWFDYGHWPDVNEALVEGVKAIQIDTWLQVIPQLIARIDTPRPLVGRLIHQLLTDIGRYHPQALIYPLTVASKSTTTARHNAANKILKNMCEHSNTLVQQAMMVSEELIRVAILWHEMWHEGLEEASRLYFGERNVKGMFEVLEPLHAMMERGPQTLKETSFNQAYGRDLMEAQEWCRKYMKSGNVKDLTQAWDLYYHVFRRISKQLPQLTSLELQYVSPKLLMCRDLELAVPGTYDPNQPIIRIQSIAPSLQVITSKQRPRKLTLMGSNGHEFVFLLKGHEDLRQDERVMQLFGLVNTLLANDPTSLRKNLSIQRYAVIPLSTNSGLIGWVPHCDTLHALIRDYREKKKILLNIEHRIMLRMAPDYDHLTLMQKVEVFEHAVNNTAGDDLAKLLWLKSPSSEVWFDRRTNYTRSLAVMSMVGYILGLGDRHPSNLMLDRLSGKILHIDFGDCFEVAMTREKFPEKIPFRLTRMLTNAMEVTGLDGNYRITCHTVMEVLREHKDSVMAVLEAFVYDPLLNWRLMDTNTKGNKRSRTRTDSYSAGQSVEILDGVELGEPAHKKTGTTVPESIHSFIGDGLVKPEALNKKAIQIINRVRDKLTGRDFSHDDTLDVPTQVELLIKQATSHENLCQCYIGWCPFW

C[C@@H]1CN(c2nc(N3CCOCC3)c3ccc(-c4ccc(OCC5CCCCC5)cc4)nc3n2)C[C@H](C)O1 [Example 1bk] and C[C@@H]1CN(c2nc(N3CCOCC3)c3ccc(-c4ccc(OC5C=CCCC5)cc4)nc3n2)C[C@H](C)O1 (some centres unmarked) [Example 1bl] cannot be ordered by IC50: under 1 µM for the first, under 10 µM for the second.

In the case of C[C@@H]1CN(c2nc(N3CCOCC3)c3ccc(-c4ccc(OCCCO)cc4)nc3n2)C[C@H](C)O1 [Example 1bm], the IC50 is reported as under 1 µM.

Same assay, conditions: Alternative Enzyme Assay; read-out: IC50 values against mTOR

With C[C@@H]1CN(c2nc(N3CCOCC3)c3ccc(-c4ccc(OCc5ccccc5)cc4)nc3n2)C[C@H](C)O1 [Example 1bf] the IC50 was under 0.3 µM.
